Test results from US20250263412A1, “NON-HYDROXAMATE HDAC6 INHIBITORS AND RELATED METHODS OF USE” (The Regents of the University of Michigan, priority 2021, published 2025).

Legend:
wild-type DIO mice = experiment: Diet-induced obesity study, daily intraperitoneal injections; assay type: in vivo, mouse
Method: (§1) Animals were housed at a 12 hours dark/light cycle, temperature and humidity controlled rooms. Mice were purchased from the Jackson LABoratory, except the HDAC6 global knockout (KO) mice, which were provided by Dr. Timothy A. Mckinsey (University of Colorado Anschutz Medical Campus, Aurora, CO, USA.). Mice were fed either regular chow or high fat diet (60 kcal % fat, Research Diets) to induce obesity (diet-induced obesity) and had free access to food and water unless specified. Body composition was analyzed with Bruker's minispec LF50 Body Composition Analyzer. Blood glucose was measured from tail vein by Contour blood glucose monitor system (Bayer). TubA (25 mg/kg body weight) or SE-7552 (50 mg/kg body weight) were administered within 1 hr before dark cycle daily by intraperitoneal (ip.) injections. For intraperitoneal injections, drugs or vehicle was injected at 25 uL volumes per animal. Mice and their food were measured daily or weekly to track body weight and food intake. Hematoxylin and eosin (H&E) staining of liver sections of diet-induced obese mice were done after one month of vehicle or TubA injections.

db/db mice = experiment: Body weight study in db/db mice; assay type: in vivo, mouse; conditions: SE-7552 50 mg/kg, i.p., daily
Method: as §1

[1] = system: HDAC6 versus all other known HDAC isozymes; conditions: cited from earlier work

CC(Nc1ncc(-c2nnc(C(F)F)o2)cn1)c1ccc(F)cc1 (stereo not shown) [SE7552]
obesity (body weight change, FIG. 1e) (wild-type DIO mice; SE-7552 50 mg/kg, i.p., daily): effectively reduces obesity | weight loss (body weight change, FIG. 1f) (db/db mice): ineffective at inducing weight loss | selectivity versus all other known HDAC isozymes [1]: About 1000 fold

CN1CCc2c(c3ccccc3n2Cc2ccc(C(=O)NO)cc2)C1 [Tubastatin A]
diet-induced obesity (FIG. 2) (wild-type DIO mice; Tubastatin 25 mg/kg, daily i.p.): Reverses Diet-Induced Obesity
